Source: PubChem BioAssay (NCI)
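Cultured in 96-well plates, cells were exposed to test compound for 48 hours across five concentrations. TGI is the concentration that stops growth completely.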

Tests used:
Test in all cases: NCI anticancer screen, dose series, 48 h
HCC-2998 colon = test system: HCC-2998 colon
SN12C renal = test system: SN12C renal
RXF 393 renal = test system: RXF 393 renal
M19-MEL melanoma = test system: M19-MEL melanoma
M14 melanoma = test system: M14 melanoma
LXFL 529 NSCLC = test system: LXFL 529 NSCLC
HOP-18 NSCLC = test system: HOP-18 NSCLC
OVCAR-4 ovarian = test system: OVCAR-4 ovarian
NCI-H23 lung = test system: NCI-H23 lung
DLD-1 colon = test system: DLD-1 colon

Row | Compound | TGI (HCC-2998 colon) [µM] | TGI (SN12C renal) [µM] | TGI (RXF 393 renal) [µM] | TGI (M19-MEL melanoma) [µM] | TGI (M14 melanoma) [µM] | TGI (LXFL 529 NSCLC) [µM] | TGI (HOP-18 NSCLC) [µM] | TGI (OVCAR-4 ovarian) [µM] | TGI (NCI-H23 lung) [µM] | TGI (DLD-1 colon) [µM]
1 | O=C(Nc1cccc(O)c1)C(=O)C(C(=O)c1ccc(Cl)c(Cl)c1)C1OC(=O)c2ccccc21 (stereo not drawn) | 29.2 | 38.4 | 37.2 | 27.1 | 37.1 | 24.6 | > 100 | 36.7 | 32.6 | –
2 | O=C1OC(O)C(Oc2c(Cl)cccc2Cl)=C1Cl (stereo not drawn) | 37.9 | 35 | 23.9 | – | 33.2 | 33.6 | 42.4 | – | 38.9 | 32.1
3 | CCOC(=O)C(C)(C)Oc1ccc(/C=C/C(=O)c2ccc(Cl)cc2)cc1 | – | 36 | 30.5 | 38.2 | 34.7 | 29.2 | – | 32.9 | 37.1 | 27.9
4 | CC/C(CC(=O)CCC(=O)Nc1ccccc1[N+](=O)[O-])=N/NC(=O)C[n+]1ccccc1 | > 100 | > 100 | > 100 | > 100 | > 100 | > 100 | > 100 | > 100 | > 100 | –
5 | O=C1C=CC(=O)c2cc(Sc3ccccc3)c(=O)ccc21 | 35.3 | 33.9 | 25 | 35.3 | 41.3 | 20.3 | 31.8 | 23.2 | 37 | 39
6 | FC(F)(F)C1(Br)C(c2ccccc2)=C1c1ccccc1 | 38.4 | 28.3 | 31.7 | 30 | 35 | 28.1 | 31.1 | 54 | 32.7 | 43
7 | C=C[C@@]1(O)CCCC2=C(C(=O)OCC)CC[C@]21C | > 100 | > 100 | > 100 | > 100 | > 100 | > 100 | > 100 | – | > 100 | > 100
8 | O=C1C(Cl)C(c2ccccc2O)N1n1cnc2ccccc2c1=O (stereo not drawn) | > 100 | 20.4 | 95.7 | > 100 | > 100 | > 100 | > 100 | > 100 | > 100 | > 100
9 | CC1=NN(C(=O)c2ccc([N+](=O)[O-])cc2)C(=O)C1N=Nc1ccccc1C(=O)O (stereo not drawn) | > 100 | > 100 | > 100 | > 100 | – | > 100 | – | – | > 100 | > 100
10 | O=[N+]([O-])C1Cc2ccccc2OC1c1ccccc1 (stereo not drawn) | > 100 | 63 | 45.8 | > 100 | > 100 | > 100 | > 100 | > 100 | > 100 | > 100
11 | CN1C(=O)C(=O)c2cc3c(c4c2c1cc1ccccc14)OCO3 | > 100 | > 100 | 96.8 | > 100 | > 100 | > 100 | > 100 | > 100 | > 100 | > 100
12 | O=S1Nc2c(Cl)cc(Cl)c3c(Cl)cc(Cl)c(c23)N1 | 99.8 | > 100 | 50.9 | > 100 | > 100 | > 100 | > 100 | 91.2 | > 100 | 74.8
13 | CN(C)c1nc(=Nc2cccc(Cl)c2)ss1 | 47.9 | 25.4 | 31.7 | 32.6 | 28.4 | 21.7 | > 100 | 29.8 | > 100 | 24.8
14 | CCOC(=N)/C(=C1\OC(N)=C(c2ccc(Cl)cc2)C1=O)c1ccc(Cl)cc1 | 32.7 | 28.6 | 27.2 | 34.7 | 31.6 | 27.8 | 72.6 | 31.9 | 28.6 | 28.8
15 | CCOc1cccc2ccc[n+](CC)c12 | > 100 | > 100 | > 100 | > 100 | > 100 | > 100 | > 100 | > 100 | > 100 | > 100
16 | O=c1[nH]c2cc(Cl)ccc2nc1/C(=N\O)C(O)c1ccc([N+](=O)[O-])cc1 (stereo not drawn) | > 100 | > 100 | > 100 | > 100 | > 100 | > 100 | – | > 100 | – | > 100
